ChEMBL document CHEMBL1201862, “PubChem BioAssay data set” (2004)
Active and inactive are the calls of the source.

Columns and labels:
[1] = off-target signal loss in HeLa-CEM21 co-culture – HeLa F-luc CTL cells, cherry-picked, counter-screen for HIV-1 Env fusion inhibitor project, dose response (AID 652040); format: functional, cell-based;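 further: potency for signal decrease marking cytotoxic or nonspecific inhibition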
[2] = HIV-1 AD8 envelope cell-cell fusion blockers – cherry-pick, dose response (AID 652062); format: functional, cell-based;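 further: luciferase signal from cell-cell fusion driven by HIV-1 clade B AD8 Env; potency is for inhibitors of fusion seen as a drop in luminescence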
[3] = blockers of HIV-1 ZM109 envelope-driven cell-cell fusion – HeLa effector, CEM target cells, luciferase, cherry-pick, dose response (AID 652058); format: functional, cell-based;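 further: luciferase signal from HIV-1 Env mediated cell-cell fusion of effector and target cells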
[4] = blockers of HIV-1 envelope-mediated cell-cell fusion – cherry-pick, dose response (AID 652057); format: functional, cell-based
[5] = reduction of Shn3 3'UTR-driven luciferase in osteoblasts – cell-based, Clone20 osteoblasts, firefly luciferase, cherry-picked, dose response (AID 624132); format: functional;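 further: firefly luciferase luminescence from reporter carrying the Shn3 3'UTR in osteoblasts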
[6] = molecular target: T1, Histone-lysine N-methyltransferase NSD2 (Homo sapiens, UniProt O96028); format: biochemical
T1 sequence (O96028 whole entry): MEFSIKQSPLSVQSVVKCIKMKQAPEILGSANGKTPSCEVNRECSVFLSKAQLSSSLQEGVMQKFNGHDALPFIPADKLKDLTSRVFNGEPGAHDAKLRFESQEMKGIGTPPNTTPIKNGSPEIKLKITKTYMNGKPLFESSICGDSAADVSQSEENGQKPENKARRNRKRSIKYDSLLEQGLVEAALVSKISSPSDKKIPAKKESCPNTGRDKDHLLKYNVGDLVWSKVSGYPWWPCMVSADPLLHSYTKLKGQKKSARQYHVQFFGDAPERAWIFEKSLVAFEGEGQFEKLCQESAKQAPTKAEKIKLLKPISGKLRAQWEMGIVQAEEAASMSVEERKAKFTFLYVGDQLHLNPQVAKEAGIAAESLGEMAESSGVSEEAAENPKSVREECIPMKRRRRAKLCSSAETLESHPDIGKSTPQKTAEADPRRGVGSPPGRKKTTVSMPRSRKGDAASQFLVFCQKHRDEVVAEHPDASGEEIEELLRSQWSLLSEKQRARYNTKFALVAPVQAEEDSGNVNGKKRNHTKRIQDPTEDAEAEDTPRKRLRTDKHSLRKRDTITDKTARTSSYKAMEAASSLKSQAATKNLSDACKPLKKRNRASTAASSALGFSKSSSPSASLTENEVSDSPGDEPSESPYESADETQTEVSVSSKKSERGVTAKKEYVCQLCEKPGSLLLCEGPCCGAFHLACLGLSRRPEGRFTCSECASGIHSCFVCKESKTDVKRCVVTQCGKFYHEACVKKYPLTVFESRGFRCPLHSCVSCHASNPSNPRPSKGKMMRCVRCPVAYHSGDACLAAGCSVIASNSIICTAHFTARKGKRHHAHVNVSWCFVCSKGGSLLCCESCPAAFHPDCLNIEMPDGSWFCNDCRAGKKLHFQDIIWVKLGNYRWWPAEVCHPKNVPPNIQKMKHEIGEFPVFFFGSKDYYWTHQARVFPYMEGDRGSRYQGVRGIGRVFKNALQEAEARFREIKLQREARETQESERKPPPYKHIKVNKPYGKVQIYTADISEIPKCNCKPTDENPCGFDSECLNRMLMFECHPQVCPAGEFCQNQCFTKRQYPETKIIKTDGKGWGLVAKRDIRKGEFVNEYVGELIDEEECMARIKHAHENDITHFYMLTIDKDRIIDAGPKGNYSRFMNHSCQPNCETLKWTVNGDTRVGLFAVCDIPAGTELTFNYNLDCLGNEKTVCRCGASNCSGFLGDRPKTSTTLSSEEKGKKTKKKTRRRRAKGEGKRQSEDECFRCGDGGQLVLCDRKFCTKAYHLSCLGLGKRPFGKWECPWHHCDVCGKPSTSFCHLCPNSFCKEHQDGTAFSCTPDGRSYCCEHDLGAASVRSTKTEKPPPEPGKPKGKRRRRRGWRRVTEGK

[7] = cells; format: functional
[8] = molecular target: T2, Fatty acid synthase (Homo sapiens, UniProt P49327); experiment: inhibition of human FAS-TE enzyme activity – biochemical, kinetic fluorescence intensity, dose response (AID 624326); format: functional;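 further: rate of fluorescence rise from hydrolysis of a fluorogenic O-methyl fluorescein ester substrate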
T2 sequence (P49327 whole entry): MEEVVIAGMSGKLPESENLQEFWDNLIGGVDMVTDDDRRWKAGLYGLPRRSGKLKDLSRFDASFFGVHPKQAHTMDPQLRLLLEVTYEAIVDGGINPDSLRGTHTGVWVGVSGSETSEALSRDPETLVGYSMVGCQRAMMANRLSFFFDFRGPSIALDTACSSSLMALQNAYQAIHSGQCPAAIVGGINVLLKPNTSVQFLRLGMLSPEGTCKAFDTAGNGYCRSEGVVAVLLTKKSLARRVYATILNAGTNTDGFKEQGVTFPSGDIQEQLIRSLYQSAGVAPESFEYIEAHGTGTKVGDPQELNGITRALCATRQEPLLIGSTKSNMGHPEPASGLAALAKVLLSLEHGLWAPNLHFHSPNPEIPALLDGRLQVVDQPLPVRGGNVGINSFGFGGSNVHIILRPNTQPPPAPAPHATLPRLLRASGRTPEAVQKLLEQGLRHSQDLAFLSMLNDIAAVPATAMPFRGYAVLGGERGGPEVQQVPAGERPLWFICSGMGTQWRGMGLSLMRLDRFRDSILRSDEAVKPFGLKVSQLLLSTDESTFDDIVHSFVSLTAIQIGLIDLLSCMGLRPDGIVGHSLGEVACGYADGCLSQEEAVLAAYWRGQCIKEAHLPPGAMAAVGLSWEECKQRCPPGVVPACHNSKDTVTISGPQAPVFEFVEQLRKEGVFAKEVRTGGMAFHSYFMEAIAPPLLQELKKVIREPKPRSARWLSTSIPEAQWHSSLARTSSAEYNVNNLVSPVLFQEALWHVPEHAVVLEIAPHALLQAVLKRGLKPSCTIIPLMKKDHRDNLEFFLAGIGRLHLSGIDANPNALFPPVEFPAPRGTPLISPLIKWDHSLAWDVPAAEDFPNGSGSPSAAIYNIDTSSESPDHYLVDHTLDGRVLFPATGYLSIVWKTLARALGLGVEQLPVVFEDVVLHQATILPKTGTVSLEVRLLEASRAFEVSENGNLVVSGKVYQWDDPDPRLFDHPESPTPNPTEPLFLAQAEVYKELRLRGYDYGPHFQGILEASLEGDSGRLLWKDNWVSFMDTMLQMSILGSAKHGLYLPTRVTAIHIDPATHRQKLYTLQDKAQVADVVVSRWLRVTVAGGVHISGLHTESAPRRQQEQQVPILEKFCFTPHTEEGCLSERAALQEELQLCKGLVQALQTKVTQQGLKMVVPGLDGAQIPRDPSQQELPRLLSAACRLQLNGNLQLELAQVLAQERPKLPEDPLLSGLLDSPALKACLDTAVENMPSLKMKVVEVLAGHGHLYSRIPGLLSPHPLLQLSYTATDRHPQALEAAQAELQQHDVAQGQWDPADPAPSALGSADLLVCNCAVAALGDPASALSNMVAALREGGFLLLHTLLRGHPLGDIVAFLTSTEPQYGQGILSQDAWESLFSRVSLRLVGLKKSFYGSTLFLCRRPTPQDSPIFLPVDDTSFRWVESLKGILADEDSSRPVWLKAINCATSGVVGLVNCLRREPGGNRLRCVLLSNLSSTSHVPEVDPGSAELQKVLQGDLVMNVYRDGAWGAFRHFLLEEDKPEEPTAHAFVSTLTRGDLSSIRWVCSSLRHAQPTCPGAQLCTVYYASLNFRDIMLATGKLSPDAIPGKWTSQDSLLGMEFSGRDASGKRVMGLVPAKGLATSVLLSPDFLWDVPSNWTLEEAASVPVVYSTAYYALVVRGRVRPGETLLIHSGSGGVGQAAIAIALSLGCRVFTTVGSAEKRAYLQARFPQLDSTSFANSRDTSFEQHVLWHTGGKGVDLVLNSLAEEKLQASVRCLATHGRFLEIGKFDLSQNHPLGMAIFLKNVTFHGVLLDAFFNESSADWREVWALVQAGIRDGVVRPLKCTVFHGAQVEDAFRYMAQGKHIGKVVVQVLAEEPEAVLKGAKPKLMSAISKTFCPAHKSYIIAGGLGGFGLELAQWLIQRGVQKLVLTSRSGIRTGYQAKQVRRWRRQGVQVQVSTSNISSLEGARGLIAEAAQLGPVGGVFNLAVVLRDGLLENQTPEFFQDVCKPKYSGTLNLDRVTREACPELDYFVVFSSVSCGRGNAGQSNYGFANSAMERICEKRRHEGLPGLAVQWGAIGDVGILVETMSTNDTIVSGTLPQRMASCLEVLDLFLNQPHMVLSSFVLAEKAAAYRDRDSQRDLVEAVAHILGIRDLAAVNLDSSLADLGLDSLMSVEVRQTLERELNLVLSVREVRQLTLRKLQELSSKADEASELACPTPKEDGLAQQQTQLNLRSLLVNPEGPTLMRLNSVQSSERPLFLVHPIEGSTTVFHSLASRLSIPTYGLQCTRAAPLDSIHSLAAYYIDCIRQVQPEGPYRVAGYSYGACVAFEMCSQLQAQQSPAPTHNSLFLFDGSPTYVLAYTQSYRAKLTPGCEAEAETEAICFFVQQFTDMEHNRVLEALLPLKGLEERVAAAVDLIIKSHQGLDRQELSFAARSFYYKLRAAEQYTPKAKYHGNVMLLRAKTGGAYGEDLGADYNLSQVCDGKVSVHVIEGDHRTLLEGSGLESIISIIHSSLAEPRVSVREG

[9] = molecular target: T2, Fatty acid synthase; experiment: inhibition of human FAS-TE enzyme activity – biochemical, endpoint fluorescence intensity, uHTS hits, dose response (AID 624327); format: functional;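 further: fluorescence from hydrolysis of an O-methyl fluorescein acyl ester substrate by the enzyme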
[10] = molecular target: Large T antigen (Simian virus 40, UniProt P03070); format: functional, Betapolyomavirus macacae;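 further: Confirmatory-stage PubChem screen for compounds that inhibit SV40 T antigen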
Large T antigen, sequence (P03070 whole entry): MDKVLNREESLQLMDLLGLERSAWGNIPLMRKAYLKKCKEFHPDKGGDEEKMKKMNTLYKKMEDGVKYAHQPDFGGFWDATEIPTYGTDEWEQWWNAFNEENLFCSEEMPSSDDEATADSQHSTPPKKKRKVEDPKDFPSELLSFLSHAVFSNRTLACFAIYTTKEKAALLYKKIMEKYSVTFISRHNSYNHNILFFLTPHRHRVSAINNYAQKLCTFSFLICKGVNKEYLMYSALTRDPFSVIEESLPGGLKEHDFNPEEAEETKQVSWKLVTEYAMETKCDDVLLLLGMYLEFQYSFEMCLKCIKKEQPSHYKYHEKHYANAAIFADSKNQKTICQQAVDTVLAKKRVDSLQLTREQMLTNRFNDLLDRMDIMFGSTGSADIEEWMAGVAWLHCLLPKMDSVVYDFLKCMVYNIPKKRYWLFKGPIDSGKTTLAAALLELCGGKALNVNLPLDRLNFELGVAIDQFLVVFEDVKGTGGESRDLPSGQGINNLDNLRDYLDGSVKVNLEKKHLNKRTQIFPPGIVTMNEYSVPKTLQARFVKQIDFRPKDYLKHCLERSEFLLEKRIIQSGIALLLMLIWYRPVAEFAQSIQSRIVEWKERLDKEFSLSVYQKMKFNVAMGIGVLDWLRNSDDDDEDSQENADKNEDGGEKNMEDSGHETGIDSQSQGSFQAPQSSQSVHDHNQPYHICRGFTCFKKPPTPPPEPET

[11] = Luminescence Cell-Based Dose Response HTS to Identify Activators of Luciferase Translation or Activity in H4 […] Cells. [Related pubchem assays: 1829 (Project Summary), 1814 (Primary HTS)]; format: functional
[12] = system: H4; experiment: Luminescence Cell-Based Dose Response HTS to Identify Activators of 5'UTR Stem-Loop Driven Prion Protein mRNA Translation in H4 Neuroglioblastoma Cells. [Related pubchem assays: 1829 (Project Summary), 1814 (Primary HTS)]; format: functional; conditions: Homo sapiens
[13] = Luminescence Cell-Based Dose Confirmation HTS to Identify Activators of 5'UTR Stem-Loop Driven Alpha-Synuclein mRNA Translation in H4 Neuroglioblastoma Cells. [Related pubchem assays: 1829 (Project Summary), 1814 (Primary HTS)]; format: functional
[14] = molecular target: T3, Replicative DNA helicase DnaB (Mycobacterium tuberculosis, UniProt P9WMR3); experiment: DnaB intein splicing inhibitors, dose response, biochemical, cell-free fluorescence (AID 449749); format: functional
T3 sequence (P9WMR3 whole entry): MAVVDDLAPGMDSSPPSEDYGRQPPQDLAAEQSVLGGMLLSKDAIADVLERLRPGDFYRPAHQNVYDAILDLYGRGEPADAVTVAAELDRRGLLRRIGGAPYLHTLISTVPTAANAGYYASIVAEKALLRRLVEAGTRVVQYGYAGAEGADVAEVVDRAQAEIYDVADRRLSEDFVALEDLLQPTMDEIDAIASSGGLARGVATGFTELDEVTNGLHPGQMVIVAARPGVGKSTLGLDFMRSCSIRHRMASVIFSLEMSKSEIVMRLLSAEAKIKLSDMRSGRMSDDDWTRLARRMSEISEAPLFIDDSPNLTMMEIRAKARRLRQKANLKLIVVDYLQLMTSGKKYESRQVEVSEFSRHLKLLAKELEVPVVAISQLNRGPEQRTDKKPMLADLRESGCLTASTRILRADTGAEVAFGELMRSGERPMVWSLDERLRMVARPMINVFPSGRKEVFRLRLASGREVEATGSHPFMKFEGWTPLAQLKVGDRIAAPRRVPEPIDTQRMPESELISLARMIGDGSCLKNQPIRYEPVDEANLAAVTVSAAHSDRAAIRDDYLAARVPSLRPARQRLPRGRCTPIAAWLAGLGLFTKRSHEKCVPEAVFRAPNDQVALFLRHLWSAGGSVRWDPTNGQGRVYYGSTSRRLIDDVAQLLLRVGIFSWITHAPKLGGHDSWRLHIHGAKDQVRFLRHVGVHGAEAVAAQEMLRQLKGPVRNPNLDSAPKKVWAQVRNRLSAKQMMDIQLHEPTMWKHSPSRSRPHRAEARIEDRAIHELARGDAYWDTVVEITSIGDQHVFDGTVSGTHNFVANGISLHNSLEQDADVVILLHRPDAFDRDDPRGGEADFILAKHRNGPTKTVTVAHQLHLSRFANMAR

[15] = molecular target: T4, Protein RecA (Mycobacterium tuberculosis, UniProt P9WHJ3); experiment: Fluorescence Cell-Free Homogeneous Dose Retest to Identify Inhibitors of RecA-Intein Splicing Activity. [Related pubchem assays (depositor defined):AID2097, AID2223, AID489010, AID492950]; format: functional
T4 sequence (P9WHJ3 whole entry): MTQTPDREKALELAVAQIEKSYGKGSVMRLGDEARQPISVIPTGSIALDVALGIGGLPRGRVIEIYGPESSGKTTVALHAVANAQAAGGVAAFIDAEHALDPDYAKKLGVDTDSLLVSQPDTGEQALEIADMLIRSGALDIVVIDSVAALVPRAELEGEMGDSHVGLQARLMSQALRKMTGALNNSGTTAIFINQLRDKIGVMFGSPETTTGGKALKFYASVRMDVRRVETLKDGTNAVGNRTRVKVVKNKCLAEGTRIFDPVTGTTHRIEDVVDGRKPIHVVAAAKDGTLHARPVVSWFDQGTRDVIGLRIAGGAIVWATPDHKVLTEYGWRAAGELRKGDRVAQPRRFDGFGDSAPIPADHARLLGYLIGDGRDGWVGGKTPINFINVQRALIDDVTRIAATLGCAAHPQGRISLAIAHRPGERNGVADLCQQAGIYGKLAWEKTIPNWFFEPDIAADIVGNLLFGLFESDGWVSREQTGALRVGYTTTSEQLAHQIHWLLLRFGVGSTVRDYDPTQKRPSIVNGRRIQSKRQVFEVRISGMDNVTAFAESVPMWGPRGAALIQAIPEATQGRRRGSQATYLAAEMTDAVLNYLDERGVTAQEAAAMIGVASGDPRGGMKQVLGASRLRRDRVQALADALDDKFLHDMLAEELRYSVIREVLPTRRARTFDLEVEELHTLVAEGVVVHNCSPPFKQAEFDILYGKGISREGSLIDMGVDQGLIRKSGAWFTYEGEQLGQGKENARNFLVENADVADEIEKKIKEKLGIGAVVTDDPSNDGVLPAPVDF

[16] = molecular target: T5, Rac GTPase-activating protein 1 (Homo sapiens, UniProt Q9H0H5); experiment: blockers of MgcRacGAP-driven Rac1 GTP hydrolysis – biochemical, ADP Hunter fluorescence, primary and confirmatory, confirmation (AID 624330); format: functional
T5 sequence (Q9H0H5 whole entry): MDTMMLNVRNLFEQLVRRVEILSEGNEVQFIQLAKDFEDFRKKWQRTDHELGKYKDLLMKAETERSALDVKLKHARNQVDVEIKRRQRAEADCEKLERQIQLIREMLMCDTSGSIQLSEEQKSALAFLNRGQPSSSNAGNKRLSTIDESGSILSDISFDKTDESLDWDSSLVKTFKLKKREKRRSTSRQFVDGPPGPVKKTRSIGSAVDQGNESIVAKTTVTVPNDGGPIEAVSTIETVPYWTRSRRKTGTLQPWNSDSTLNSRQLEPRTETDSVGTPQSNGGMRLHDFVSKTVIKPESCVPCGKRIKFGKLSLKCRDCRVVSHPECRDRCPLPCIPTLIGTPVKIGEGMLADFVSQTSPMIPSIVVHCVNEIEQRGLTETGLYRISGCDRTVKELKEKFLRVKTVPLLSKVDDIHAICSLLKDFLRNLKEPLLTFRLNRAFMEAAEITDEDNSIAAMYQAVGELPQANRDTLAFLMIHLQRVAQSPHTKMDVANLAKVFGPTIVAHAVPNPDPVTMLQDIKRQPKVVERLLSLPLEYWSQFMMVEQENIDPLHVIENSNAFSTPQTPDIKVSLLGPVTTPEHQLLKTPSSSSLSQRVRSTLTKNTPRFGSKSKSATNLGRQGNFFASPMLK

[17] = molecular target: FAD-linked sulfhydryl oxidase ALR (Homo sapiens, UniProt P55789); experiment: ALR-catalysed DTT oxidation blockers – biochemical, H2O2 detection, luminescence, cherry-pick, dose response (AID 493248)
FAD-linked sulfhydryl oxidase ALR, sequence (P55789 whole entry): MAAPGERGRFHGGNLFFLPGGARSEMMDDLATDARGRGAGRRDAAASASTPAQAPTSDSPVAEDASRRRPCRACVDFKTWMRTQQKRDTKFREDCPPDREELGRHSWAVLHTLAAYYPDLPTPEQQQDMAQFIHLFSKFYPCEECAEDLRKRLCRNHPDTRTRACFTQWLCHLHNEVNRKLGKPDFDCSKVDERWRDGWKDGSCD

Cc1cc(Oc2ccc(C#N)cc2)nc(NCc2ccccc2)n1
AC50 [1]: > 70 µM (inactive)
AC50 [2]: 9.81 µM (active)
AC50 [3]: 5.62 µM (active)

O=C(N(Cc1ccccc1)c1ccccn1)C12CC3CC(CC(C3)C1)C2
AC50 [1]: 2.99 µM (active)
AC50 [4]: 1.62 µM (active)
AC50 [2]: 6.03 µM (active)
AC50 [3]: 2.19 µM (active)

CCOc1ccc2nc(SC3CC(=O)N(c4ccc(C)cc4)C3=O)sc2c1 (centres undefined)
AC50 [5]: 15.6 µM (active)

Cc1cc([N+](=O)[O-])cc2c1NC(=O)C2(O)N1CCOCC1 (centres undefined)
AC50 [6]: 15.7 µM (active)

CNCc1ccc(OCc2ccccc2)c(OC)c1
AC50 [6]: > 20 µM (inactive)

CC(NC(=O)c1cc([N+](=O)[O-])cc([N+](=O)[O-])c1)c1ccc(-n2ccnc2)cc1 (centres undefined)
IC50 [7]: 1.43 µM (active)
IC50 [8]: 6.68 µM (active)
IC50 [9]: 10.1 µM (active)

CCc1ccc(C2CC(=O)N3CN(c4ccccc4)CSC3=C2C#N)cc1 (centres undefined)
IC50 [10]: 70.1 µM (active)

CNCc1ccccc1OCc1ccc(F)cc1
AC50 [6]: > 20 µM (inactive)

Cc1oc(-c2ccccc2F)nc1CN1CCC(C(=O)NCCC2=CCCCC2)CC1
AC50 [4]: 5.29 µM (active)
AC50 [2]: 1.28 µM (active)
AC50 [3]: 4.91 µM (active)

O=C(c1ccco1)N1CCCC(Nc2ccc3c(c2)OCCO3)C1 (centres undefined)
EC50 [11]: 9.98 µM (active)
EC50 [12]: 37.7 µM (active)
EC50 [13]: 8.81 µM (active)
IC50 [10]: 29.3 µM (active)

CCN(CC)CCSc1nc2ccccc2c(=S)n1-c1ccccc1
AC50 [6]: > 20 µM (inactive)

COc1ccc([C@H]2/C=C\CN(C(=O)C3CC3)[C@@H](C)C(=O)N2Cc2ccc(F)cc2)cc1
AC50 [1]: 7.85 µM (active)
AC50 [4]: 4.42 µM (active)
AC50 [2]: 4.99 µM (active)
AC50 [3]: 0.488 µM (active)

CCN1Cc2c(/C=C/c3ccccc3)nc3ccc(OC)cc3c2N(c2cccc(Cl)c2)C1
AC50 [14]: > 380 µM (inactive)
EC50 [15]: 17.6 µM (active)
IC50 [8]: 3.61 µM (active)
IC50 [9]: 2.35 µM (active)

COc1ccc(S(=O)(=O)Nc2ccc3c(c2)CC(=O)N([C@@H](C)CO)C[C@H](C)[C@H](CN(C)S(=O)(=O)c2ccc(F)cc2)O3)cc1
AC50 [4]: 10 µM (active)
AC50 [2]: 18.6 µM (active)
AC50 [3]: 11.4 µM (active)

COc1ccc(/N=C/c2c(O)cc(C)oc2=O)cc1
IC50 [16]: 85.2 µM (active)
IC50 [10]: 7.84 µM (active)

COc1cc(/C=N/n2nnnc2N)ccc1O
IC50 [16]: 16.9 µM (active)
AC50 [17]: 1.2 µM (active)
IC50 [10]: 4.83 µM (active)
